{"source": "patent US7795218B2", "about": "“ADP-ribosyl transferase fusion variant proteins” (priority 2003, dated 2010)", "format_in_all_cases": "cell-based, human", "key": {"HUVEC [1]": {"tested_on": "HUVEC", "experiment": "VEGF-dependent HUVEC migration (transwell)", "conditions": "20 hours", "experimental": "FIG. 33 illustrates that SEQ ID NO: 10 can modify VEGF-dependent HUVEC migration, wherein in (A) HUVEC were seeded into 24-well-fibronectin-coated transwell chambers containing SEQ ID NO: 10, Fasudil or Tranilast, migration was stimulated for 20 hours with 10 ng/mL of VEGF with or without test compound, migrated cells were measured by fluorescence using Calcein-AM as a probe, and in (B) HUVEC were pre-treated for 24 hours with 50 μg/mL of SEQ ID NO: 10 prior to the start of migration (results are expressed as a percentage of that from untreated cells stimulated with VEGF±SEM and represent 4 independent experiments analyzed in duplicate; symbols * and *** represent, respectively, significant (p<0.05) and highly significant (p<0.001) difference from untreated cells+VEGF (Control+VEGF); symbol # # # represents significant difference (p<0.001) from untreated cells−VEGF (Control−VEGF));\nAnother cellular function and part of the angiogenic process that is known to be perturbed by Rho GTPase inhibition is endothelial cell migration. In order to evaluate the effect of SEQ ID NO: 10 on HUVEC migration, cells are seeded in the upper side of a transwell insert along with the desired test compounds, and migration is then induced with 10 ng/mL of VEGF at the bottom side of the insert. After 20 hours of migration, cells that pass through the membrane of the insert are labeled with calcein AM probe and detected via fluorescence. […]."}, "HUVEC [2]": {"tested_on": "HUVEC", "experiment": "HUVEC proliferation (Alamar blue)", "conditions": "up to 100 μg/mL (or μM), 24 hr or 72 hr", "experimental": "FIG. 32 illustrates that SEQ ID NO: 10 affects HUVEC proliferation at high concentration, wherein HUVEC were plated in 96 wells (collagen 1-coated) and incubated during 24 h or 72 with 0 to 100 μg/mL (or μM) of SEQ ID NO: 10, Fasudil or Tranilast, cells from 4 h and 24 h were washed out and replenished with fresh media containing no test compounds and left until 72 hours, and at the end of treatment (72 hours) Alamar blue was added, incubated for 4 hours and fluorescence was measured. Proliferation is represented in a graph as a percentage of that from untreated cells (0 μg/mL)±S.D. and represents 2 independent studies analyzed in triplicate;\nGiven that SEQ ID NO: 10 efficiently ribosylates RhoA and therefore inhibits its activity under these conditions, it appears that the proliferation of HUVEC in this system, along with this part of the angiogenic sequence, proceeds independently of RhoA activity. In contrast, HUVEC proliferation seems to depend on Rho kinase activity as well as on the activity of those targets, possibly including protein kinase C, blocked by Tranilast."}, "HUVEC [3]": {"tested_on": "HUVEC", "experiment": "HUVEC tube formation on ECmatrix", "conditions": "50 μM", "experimental": "FIG. 31 illustrates that SEQ ID NO: 10 decreases tube formation in HUVEC, wherein HUVEC were seeded on solidified ECmatrix™ without (Control) or with 10 μg/mL or 50 μg/mL of SEQ ID NO: 10 or the angiogenesis inhibitor Tranilast, cells were also incubated with 10 μM or 50 μM of the ROCK inhibitor Fasudil, capillary-like structures were visualized between 6 h to 20 h incubation, and wherein in (A) photographs were taken under phase contrast inverted microscope at 40× magnification and (B) quantification of tube length was reported as percentage of the length from untreated cells SEM (photographs and quantification are representative of at least 2 independent experiments analyzed in triplicate; symbols * and ** represent respectively significant (p<0.05) and highly significant (p<0.01) difference from untreated cells);\nReferring to FIG. 31, to evaluate the importance of the signalling pathway Rho-Rock in angiogenesis, Transilat (10 μg/ml and 50 μg/ml) is used as a positive control. Transilat is known to block one of the principal angiogenesis routes i.e. the VEGF pathway. The binding of VEGF to VEGF-R stimulates tyrosine auto-phosphorylation of one of the receptors which initiates a signalling pathway, in part through PKC. Tranilast acts by inhibiting VEGF dependent PKC activation. […]"}}}
{"smiles": "O=S(=O)(c1cccc2cnccc12)N1CCCNCC1", "note": "[Fasudil]", "values": [{"measurement": "decrease of VEGF-induced HUVEC migration", "setting": "HUVEC [1]; 50 μM", "value": 66, "unit": "%"}, {"measurement": "HUVEC proliferation", "setting": "HUVEC [2]", "value": "significant (p<0.01) reductions in HUVEC cell proliferation"}, {"measurement": "decrease of tube formation", "setting": "HUVEC [3]", "value": 58, "unit": "%"}]}
{"smiles": "COc1ccc(/C=C/C(=O)Nc2ccccc2C(=O)O)cc1OC", "note": "[Tranilast]", "values": [{"measurement": "decrease of VEGF-induced HUVEC migration", "setting": "HUVEC [1]; 10 μg/mL", "value": 45, "unit": "%"}, {"measurement": "decrease of VEGF-induced HUVEC migration", "setting": "HUVEC [1]; 50 μg/mL", "value": 72, "unit": "%"}]}
